Like-named read-outs stand apart in the source and are kept apart here.
Target: T1, TAAR1 (Mus musculus, UniProt Q923Y8)
T1 construct: expressed in transfected cells; host or cells: HEK293 cells (ATCC # CRL-1573), stably transfected with a pIRESneo2 expression plasmid; membranes prepared from them
Experiment: Radioligand binding to TAAR1, membranes of stably transfected HEK293 cells
Method: For the construction of expression plasmids, the coding sequences of human, rat and mouse TAAR 1 were amplified from genomic DNA essentially as described by Lindemann et al. (2005) Genomics 85, 372-385. The Expand High Fidelity PCR System (Roche Diagnostics) was used with 1.5 mM Mg^2F and purified PCR products were cloned into pCR2.1-TOPO cloning vector (Invitrogen) following the instructions of the manufacturer. PCR products were subcloned into the pIRESneo2 vector (BD Clontech, Palo Alto, Calif.), and expression vectors were sequence verified before introduction in cell lines.
HEK293 cells (ATCC # CRL-1573) were cultured essentially as described in Lindemann et al. (2005) Genomics 85, 372-385. For the generation of stably transfected cell lines, HEK293 cells were transfected with the pIRESneo2 expression plasmids containing the TAAR coding sequences (described above) with Lipofectamine 2000 (Invitrogen) according to the instructions of the manufacturer, and 24 hours post transfection, the culture medium was supplemented with 1 mg/ml G418 (Sigma, Buchs, Switzerland). After a culture period of about 10 days, clones were isolated, expanded and tested for responsiveness to trace amines (all compounds purchased from Sigma) with the cAMP Biotrak Enzyme immunoassay (EIA) System (Amersham) following the non-acetylation EIA procedure provided by the manufacturer.
Cells at confluence were rinsed with ice-cold phosphate buffered saline without Ca^2+ and Mg^2+ containing 10 mM EDTA and pelleted by centrifugation at 1000 rpm for 5 minutes at 4° C. The pellet was then washed twice with ice-cold phosphate buffered saline and the cell pellet was frozen immediately by immersion in liquid nitrogen and stored until use at −80° C. The cell pellet was then suspended in 20 ml HEPES-NaOH (20 mM), pH 7.4 containing 10 mM EDTA, and homogenized with a Polytron (PT 3000, Kinematica) at 10,000 rpm for 10 seconds. The homogenate was centrifuged at 48,000×g for 30 minutes at 4° C. and the pellet resuspended in 20 ml HEPES-NaOH (20 mM), pH 7.4 containing 0.1 mM EDTA (buffer A), and homogenized with a Polytron at 10,000 rpm for 10 seconds. The homogenate was then centrifuged at 48,000×g for 30 minutes at 4° C. and the pellet resuspended in 20 ml buffer A, and homogenized with a Polytron at 10,000 rpm for 10 seconds. Protein concentration was determined by the method of Pierce (Rockford, Ill.). The homogenate was then centrifuged at 48,000×g for 10 minutes at 4° C., resuspended in HEPES-NaOH (20 mM), pH 7.0 including MgC12 (10 mM) and CaCl2 ([…]) (buffer B) at 200 μg protein per ml and homogenized with a Polytron at 10,000 rpm for 10 seconds.
Binding assay was performed at 4° C. in a final volume of 1 ml, and with an incubation time of 30 minutes. The radioligand [^3H]-rac-2-(1,2,3,4-tetrahydro-1-naphthyl)-2-imidazoline was used at a concentration equal to the calculated Kd value of 60 nM to give a total binding at around 0.1% of the total added radioligand concentration, and a specific binding which represented approximately 70-80% of the total binding. Non-specific binding was defined as the amount of [^3H]-rac-2-(1,2,3,4-tetrahydro-1-naphthyl)-2-imidazoline bound in the presence of the appropriate unlabelled ligand (10 μM). Competing ligands were tested in a wide range of concentrations ([…]). […] Each experiment was performed in duplicate. All incubations were terminated by rapid filtration through UniFilter-96 plates (Packard Instrument Company) and glass filter GF/C, pre-soaked for at least 2 hours in polyethylenimine 0.3%, and using a Filtermate 96 Cell Harvester (Packard Instrument Company). The tubes and filters were then washed 3 times with 1 ml aliquots of cold buffer B. Filters were not dried and soaked in Ultima gold (45 μl/well, Packard Instrument Company) and bound radioactivity was counted by a TopCount Microplate Scintillation Counter (Packard Instrument Company).

[1] = mouse TAAR1, radioligand [3H]-rac-2-(1,2,3,4-tetrahydro-1-naphthyl)-2-imidazoline at 60 nM, 4° C., 30 minutes, read-out: Ki (μM) mouse

T1 sequence (Q923Y8 whole entry): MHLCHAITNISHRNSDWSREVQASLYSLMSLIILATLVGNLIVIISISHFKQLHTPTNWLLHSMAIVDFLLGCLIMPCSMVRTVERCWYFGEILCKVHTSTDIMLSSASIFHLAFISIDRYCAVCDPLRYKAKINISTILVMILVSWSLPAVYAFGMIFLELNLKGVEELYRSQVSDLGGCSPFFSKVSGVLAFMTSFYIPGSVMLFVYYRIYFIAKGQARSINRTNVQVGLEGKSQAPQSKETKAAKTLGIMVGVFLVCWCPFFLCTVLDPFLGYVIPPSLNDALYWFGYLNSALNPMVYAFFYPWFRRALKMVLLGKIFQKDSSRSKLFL

| Ki [1] [µM] | Compound | Ki [µM] | other results |
| --- | --- | --- | --- |
| – | Clc1ccccc1CCc1cnc[nH]1 [Example 5, 4-[2-(2-Chloro-phenyl)-ethyl]-1H-imidazole] | 0.0059 | – |
| – | COc1cccc(CCc2cnc[nH]2)c1 [Example 14, 4-[2-(3-Methoxy-phenyl)-ethyl]-1H-imidazole] | 0.0606 | – |
| – | CCC(Cc1cnc[nH]1)c1ccccc1 (stereo not drawn) [Example 1, 4-(2-Phenyl-butyl)-1H-imidazole] | 0.0609 | – |
| – | COc1ccccc1CCc1cnc[nH]1 [Example 8, 4-[2-(2-Methoxy-phenyl)-ethyl]-1H-imidazole] | 0.0843 | – |
| 0.0227 | Clc1ccc(OCc2cnc[nH]2)cc1Cl [Example 36, 4-(3,4-Dichloro-phenoxymethyl)-1H-imidazole] | – | – |
| 0.0802 | Fc1cc(OCc2cnc[nH]2)ccc1Cl [Example 37, 4-(4-Chloro-3-fluoro-phenoxymethyl)-1H-imidazole] | – | – |
| – | Clc1ccc(CCc2cnc[nH]2)cc1 [Example 16, 4-[2-(4-Chloro-phenyl)-ethyl]-1H-imidazole] | 0.0172 | – |
| 0.0041 | Clc1cccc(SCc2cnc[nH]2)c1Cl [Example 42, 5-(2,3-Dichloro-phenylsulfanylmethyl)-1-imidazole] | – | – |
| 0.0103 | c1ccc2cc(SCc3c[nH]cn3)ccc2c1 [Example 47, 4-(Naphthalen-2-ylsulfanylmethyl)-1H-imidazole] | – | – |
| – | Clc1cc(Cl)cc(CCc2cnc[nH]2)c1 [Example 17, 4-[2-(3,5-Dichloro-phenyl)-ethyl]-1H-imidazole] | 0.0019 | – |
| 0.043 | Clc1cccc(OCc2cnc[nH]2)c1Cl [Example 20, 4-(2,3-Dichloro-phenoxymethyl)-1H-imidazole] | – | – |
| – | Fc1cccc(CCc2cnc[nH]2)c1 [Example 12, 4-[2-(3-Fluoro-phenyl)-ethyl]-1H-imidazole] | 0.0097 | – |
| – | Clc1cccc(CCc2cnc[nH]2)c1 [Example 11, 4-[2-(3-Chloro-phenyl)-ethyl]-1H-imidazole] | 0.0025 | – |
| 0.0146 | Cc1[nH]cnc1CSc1ccc(Cl)cc1 [Example 46, 4-(4-Chloro-phenylsulfanylmethyl)-5-methyl-1H-imidazole] | – | – |
| – | FC(F)(F)c1cccc(CCc2cnc[nH]2)c1 [Example 13, 4-[2-(3-Trifluoromethyl-phenyl)-ethyl]-1H-imidazole] | 0.0106 | – |
| 0.0684 | c1ncc(COc2ccc3ccoc3c2)[nH]1 [Example 39, 5-(Benzofuran-6-yloxymethyl)-1H-imidazole] | – | – |
| – | c1ccc2c(c1)CCCC2C1=NCCN1 (racemic) [[^3H]-rac-2-(1,2,3,4-tetrahydro-1-naphthyl)-2-imidazoline, reference compound] | – | Kd (radioligand used at a concentration equal to its calculated Kd, TAAR1 species not given): 60 nM |
| 0.0889 | Fc1cccc(OCc2cnc[nH]2)c1F [Example 35, 4-(2,3-Difluoro-phenoxymethyl)-1H-imidazole] | – | – |
